Source: patent US5830910A (priority 1995, dated 1998)
Entries after “also recorded” stand apart in the source; their conditions may differ.

Tests used:
[1] = tested on: cultured hippocampal neurons; test: cells; type: cell-based, rat
From the text: (§1) Dissociated embryonic rat hippocampal cell cultures were established and maintained. All procedures conformed with the NIH Guide for the Care and Use of Laboratory Animals and were approved by the University of Kentucky Animal Care and Use Committee. Cultures were maintained on a polyethyleneimine-coated substrate in plastic 35-mm dishes or 96 wall plates (for cell survival studies) or glass-bottom 35-mm dishes (for [Ca^2+ ]i imaging studies). The cell density was ^~ 70-100 cells/mm^2. Cells were maintained in Eagle's minimum essential medium supplemented 10% with fetal bovine serum and containing 20 mM sodium pyruvate. […] Aβ25-35 (Bachem, lot ZJ744) and Aβ1-40 (Bachem, lot ZK600) were stored in the lyophilized form, and stocks were prepared immediately before use by dissolving the peptide at a concentration of 1 mM in sterile distilled water. […] Glutamate and colchicine (Sigma) were prepared as 200-500x stocks in saline. Cytochalasins D and E (Sigma) and calcium ionophore 4-bromo-A23187 (Calbiochem) were prepared as 500x stocks in dimethyl sulfoxide. Vitamin E (α-tocopherol; Sigma) was prepared as a 500x stock in ethanol. Nordihydroguaiaretic acid and FeSo4 were prepared as 500x stocks in sterile water.
Neuronal survival was quantified by counting viable neurons in the same microscope fields (10x objective) immediately before experimental treatment and at time points after treatment. In addition, cells were grown in 96-well plates and Alamar blue fluorescence (Alamar Laboratories)was quantified by using a fluorescence plate reader. Alamar Blue is a non-fluorescent substrate that, after reduction by cell metabolites, becomes fluorescent. Usually neurons that died in the time intervals (20-48 h) between examination points were absent. Viability of the remaining neurons was assessed by morphological criteria. Neutrons with intact neurites of uniform diameter and a soma with a smooth, round appearance were considered viable, whereas neurons with fragmented neurites and a vacuolated or swollen soma were considered nonviable. Survival values were expressed as percentages of the initial number of neurons present before experimental treatment. Statistical comparisons were made using ANOVA and Scheffe post-hoc tests for pairwise comparisons.
FIG. 5. […] Cytochalasin D was added to cultures 30 min prior to exposure to glutamate, and control cultures were exposed to 0.2% dimethylsulfoxide.
(A) Neuronal survival was quantified in cultures that had been pretreated with the indicated concentrations of cytochalasin D and then exposed to 50 μM glutamate for 20 h. Values represent the means and SEM of determinations made in four separate cultures. […] Pairwise statistical comparisons of cytochalasin-treated cultures with the control survival (Scheffe's test) indicated 1 nM cytochalasin D, P<0.05; 10 nM cytochalasin D, P<0.001; 100 and 1000 nM cytochalasin D, P<0.0001.
(B) Neuronal survival was quantified in cultures that had been pretreated with either vehicle (control) or 100 nM cytochalasin D and then exposed to the indicated concentrations of glutamate for 20 h. Values represent the means and SEM of determinations made in four separate cultures. […] ANOVA with Scheffe's post hoc test.
FIG. 6. (A) Cultures were pretreated with 100 nM cytochalasin D (CyD), 100 nM cytochalasin E (CyE), or 100 nM colchicine (Colch). Cultures were then exposed to 50 μM glutamate for 20 h. Values for neuronal survival represent the means and SEM of determinations made in four separate cultures. *P<0.001 compared to control value. **P<0.001 compared to value for cultures exposed to glutamate alone.
[…] Values represent the means and SEM of determinations made in four separate cultures. *P<0.01 compared to value for cultures exposed to 20 μM glutamate alone. **P<0.05 compared to cultures exposed to 50 μM glutamate alone.

[2] = tested on: neuronal [Ca^2+]i in cultured hippocampal neurons; test: measurement of [Ca^2+]i, fura-2 imaging; type: cell-based, rat; settings: for reduction in peak [Ca^2+]i response to glutamate: 1 h
From the text: as §1
Fluorescence ratio imaging of the Ca^2+ indicator dye fura-2 was used to quantify [Ca^2+ ]i in neuronal somata. Cells were incubated for 30-40 min in the presence of 2 μM acetoxymethyl ester form of the [Ca^2+ ]i indicator dye fura-2 and were then washed twice (2 ml/wash) with fresh medium and allowed to incubate at least 40 min before imaging. Immediately before imaging, the normal culture medium was replaced with Hanks' balanced saline solution (GIBCO) containing 10 mM HEPES buffer and 10 mM of glucose. Cells were imaged using a Zeiss Attofluor system with a oil objective or Quantex system with a 40x oil objective. The ratio of the fluorescence emission using two different excitation wavelengths (334 and 380 nm) was used to determine [Ca^2+ ]i. The system was calibrated using solutions containing either no Ca^2+ or a saturating level of Ca^2+ (1 mM) according to the following formula: [Ca^2+ ]i =KD [(R-Rmin) / (Rmax -R)] (F0 /FS). Values represent the average [Ca^2+ ]i in the neuronal cell body. Experimental treatments were added to the bathing medium by dilution from 100-500x stocks.
(A) Cultures were pretreated for 1 hr with 100 nM cytochalasin D and then [Ca^2+ ]i in neurons was monitored prior to and following exposure to 50 μM glutamate. The records represent the mean [Ca^2+ ]i in 8-12 neurons. Similar results were obtained in 4 separate experiments.
(B) Aβ-induced potentiation of [Ca^2+ ]i response to glutamate is abrogated by cytochalasin D. Cultures were left untreated (Control) or were exposed to 20 μM Aβ25-35 for 6 hr or cytochalasin D plus Aβ25-35 for 6 hr. The [Ca^2+ ]i was then monitored prior to following exposure to 50 μM glutamate. Values represent the means of 8-14 neurons. Similar results were obtained in 3 separate experiments.
(C) Cultures were pretreated for 3 hr with 50 μM Aβ alone or in combination with 100 nM cytochalasin D. The [Ca^2+ ]i in neurons was then monitored prior to and following exposure to 50 mM KCl. Values represent the mean of 14-23 neurons. Similar results were obtained in a separate experiment.
(D) Cultures were pretreated for 1 h with 100 nM cytochalasin D. The [Ca^2+ ]i in neurons was measured immediately prior to, and at 5 min following, exposure to the indicated concentrations of glutamate. Values represent the means and SEM of determinations made in 17-26 neurons. *P<0.05 (10 μM glutamate), P<0.02 (50 μM glutamate), P<0.01 (100 μAM glutamate) compared to corresponding control values.
FIG. 9. Cultures were pretreated for 3 h with vehicle (control) or 10 μM jasplakinolide. The [Ca^2+ ]i was monitored prior to and following exposure to 50 μM glutamate. Values represent the mean of determinations made in 10-12 neurons. Similar results were obtained in two additional experiments.
FIG. 10. […]

Compound	neuronal survival upon exposure to glutamate ([1]; 100 nM pretreatment, 10 μM (P<0.05), 50 μM (P<0.001), 100 μM (P<0.02) glutamate, 20 h)	neurons killed upon exposure to glutamate ([1]; 100 nM pretreatment, 50 μM glutamate, 20 h) [%]	effect on neuronal survival, alone ([1]; 10-100 nM alone, 20-h exposure)	effect on [Ca^2+]i response to calcium ionophore A23187 ([2]; 100 nM pretreatment, 500 nM A23187)	effect on K^+-induced elevation of [Ca^2+]i ([2]; 100 nM pretreatment, 50 mM KCl)	reduction in peak [Ca^2+]i response to glutamate ([2]; 100 nM, 10 μM glutamate, P<0.05)	reduction in peak [Ca^2+]i response to glutamate ([2]; 100 nM, 50 μM glutamate, P<0.02)	reduction in peak [Ca^2+]i response to glutamate ([2]; 100 nM, 100 μM glutamate, P<0.01) [nM]	rest [Ca^2+]i after Aβ exposure ([2]; 100 nM, 1 h pretreatment, 50 μM Aβ for 3 and 6 h)	reduction of [Ca^2+]i response to glutamate ([2]; 100 nM, 1 hr pretreatment, 50 μM glutamate)	effect on Aβ-induced potentiation of [Ca^2+]i response to glutamate ([2]; Aβ pretreatment, 50 μM glutamate)	[Ca^2+]i responses to glutamate, Aβ, and membrane depolarization ([2]; pretreated)	protection against glutamate toxicity ([1]; 100 nM, 50 μM glutamate, 20 h)	effect on [Ca^2+]i response to glutamate ([2]; 100 nM)	rest [Ca^2+]i, alone ([2]; alone, data not shown)	effect on [Ca^2+]i response to Aβ ([2]; data not shown)
C=C1[C@@H](C)[C@H]2[C@H](Cc3ccccc3)NC(=O)[C@]23[C@H](OC(C)=O)/C=C/[C@@](C)(O)C(=O)[C@@H](C)C/C=C/[C@H]3[C@@H]1O [Cytochalasin D, cytochalasin D]	significantly greater	< 10	no significant effect on neuronal survival	did not attenuate; also recorded: does not affect	suppressed	approximately 60 nM	approximately 170 nM	~460	not significantly elevated	approximately 30%	completely blocked; also recorded: suppressed; also recorded: abrogated	attenuated				
COc1cc2c(c(OC)c1OC)-c1ccc(OC)c(=O)cc1[C@@H](NC(C)=O)CC2 [Colchicine, colchicine, reference compound]													did not protect neurons against glutamate toxicity	did not attenuate	elevation of rest [Ca^2+ ]i	did not attenuate
